Laboratory results taken from the CATMoS acute toxicity set (Mansouri et al. 2021).
Several values for one entry are separate records, joined by “and”; a condition that tells them apart may be missing. Identical values can stand only once.

Assay: rat acute oral toxicity
Settings: in vivo

Compound | LD50
CC[C@H]1OC(=O)C[C@@H](O)[C@H](C)[C@@H](O[C@@H]2O[C@H](C)[C@@H](O)[C@H](N(C)C)[C@H]2O)[C@@H](CCN2C[C@H](C)C[C@H](C)C2)C[C@@H](C)C(=O)C=CC(C)=C[C@@H]1CO[C@@H]1O[C@H](C)[C@@H](O)[C@@H](OC)[C@H]1OC | 800 mg/kg
O=C1CCCN1 | 328 mg/kg
CCOC(=O)c1ccc(O)cc1 | 4300 mg/kg
CCOP(=S)(Oc1ccc([N+](=O)[O-])cc1)c1ccccc1 (stereo not given) | 7 mg/kg
CN(C)C | 460 mg/kg
CC1(C)C(=O)N(Br)C(=O)N1Br | 250 mg/kg
COc1ccccc1[N+](=O)[O-] | 740 mg/kg
CCOc1ccc(CCCCCCC(C)C)cc1 | 5600 mg/kg
CC=Cc1ccc2c(c1)OCO2 | 1300 mg/kg
C=CC(=O)NC(C)(C)CC(C)=O | 1000 mg/kg
CC(C)=O | 5800 mg/kg
O=CC=Cc1ccccc1 | 2200 mg/kg
CCCCCC1CCC(=O)O1 (stereo not given) | 6600 mg/kg
ClCCl | 1500 mg/kg
CC(=O)CC(C)(C)O | 2520 mg/kg
O=P(O)(O)CCCl | 3400 mg/kg
CCN(CC)c1nc(C)cc(OP(=S)(OC)OC)n1 | 1250 mg/kg
C=C(C)C(=O)OCCCC | 16000 mg/kg
C=CC(=O)OCC | 800 mg/kg
CCc1ccccc1 | 3500 mg/kg
COP(=S)(OC)Oc1ccc([N+](=O)[O-])cc1Cl | 284 mg/kg
O=C(C=Cc1ccccc1)OCc1ccccc1 | 5380 mg/kg
Cc1ccccc1C | 3520 mg/kg
CC(C)(C)CCCCCCCCCN | 300 mg/kg
CCCCOC(=O)COc1ccc(Cl)cc1Cl | 600 mg/kg

Compound | LD50
N#Cc1ccc(Cl)c(Cl)c1 | 200 mg/kg
CCCCOCCOCCOCc1cc2c(cc1CCC)OCO2 | 4570 mg/kg
Cc1cccc(C)c1N | 840 mg/kg
OC[C@@H](O)[C@@H](O)CO | 13100 mg/kg
O=c1oc2ccccc2c(O)c1C1CC(c2ccc(OCc3ccc(C(F)(F)F)cc3)cc2)Cc2ccccc21 (stereo not given) | 0.25 mg/kg
CN(C)C(C)(C)CO | 1660 mg/kg
CCC12COCN1COC2 | 3670 mg/kg
O=c1[nH]c(=O)n(Cl)c(=O)n1Cl | 1170 mg/kg and 1420 mg/kg
CCCCN | 366 mg/kg
O=[N+]([O-])c1ccc(Cl)cc1 | 460 mg/kg
O=CCCCC=O | 134 mg/kg
O=C(O)c1ccccc1-c1c2cc(I)c(=O)c(I)c-2oc2c(I)c(O)c(I)cc12 | 1840 mg/kg
COC[C@H](C)N(C(=O)CCl)c1c(C)csc1C | 371 mg/kg
CCCCCCCCCCC(N)CO (stereo not given) | 300 mg/kg
CC(C)(c1ccc(O)cc1)c1ccc(O)cc1 | 3250 mg/kg
CCC(C)=O | 2740 mg/kg
O=CC=O | 481 mg/kg
COc1cc(OC)nc(Oc2cccc(Oc3nc(OC)cc(OC)n3)c2C(=O)O)n1 | 2640 mg/kg
Oc1c(Cl)cc(Cl)c(Cl)c1Cc1c(O)c(Cl)cc(Cl)c1Cl | 56 mg/kg
ClC(Cl)=C(Cl)Cl | 2630 mg/kg
C1CN(SSN2CCOCC2)CCO1 | 4300 mg/kg
CCC[Si](OC)(OC)OC | 5170 mg/kg
Cl/C=C\CCl | 81.5 mg/kg
CCCC1CC(C)(OC(C)=O)CCO1 (stereo not given) | 4300 mg/kg
CCOC(=O)c1cn2nc(OP(=S)(OCC)OCC)cc2nc1C | 151 mg/kg

Compound | LD50
O=C1c2ccccc2C(=O)N1SC(Cl)(Cl)Cl | 2640 mg/kg
COP(=S)(OC)SCN1C(=O)c2ccccc2C1=O | 26 mg/kg
C=Cc1ccccc1 | 1000 mg/kg
NCC1CCCC(CN)C1 (stereo not given) | 880 mg/kg
CCCCNCCCC | 189 mg/kg
CCOP(=S)(OCC)SCSC(C)(C)C | 1.6 mg/kg
O=C1NC(=O)C2C3C(C(O)(c4ccccc4)c4ccccn4)=CC(C3=C(c3ccccc3)c3ccccn3)C12 (stereo not given) | 3.8 mg/kg
Cc1cc(Cl)ccc1OCCCC(=O)O | 680 mg/kg
C=CC(=O)OCCOC | 404 mg/kg
CCCCCCC(CO)CCCC (stereo not given) | 13000 mg/kg
COC(=O)CC(C)=O | 2580 mg/kg
ClCC(Cl)CCl | 136 mg/kg
OCCOCCOc1ccccc1 | 2140 mg/kg
O=C(O)CCS | 63 mg/kg
CC(C)COC(=O)CC(C(=O)OCC(C)C)S(=O)(=O)O (stereo not given) | 2770 mg/kg
CN(C)CCN(C)C | 268 mg/kg
CSc1nc(NC(C)C)nc(NC(C)C)n1 | 1940 mg/kg
C=CCN=C=S | 112 mg/kg
Cc1cccc(Nc2cc(Cl)nc(SCC(=O)O)n2)c1C | 1050 mg/kg
C#CCOS(=O)OC1CCCCC1Oc1ccc(C(C)(C)C)cc1 (stereo not given) | 2200 mg/kg
CCOC(=O)CCN(SN(C)C(=O)Oc1cccc2c1OC(C)(C)C2)C(C)C | 105 mg/kg
CCCCCCCCCCCC[N+](C)(C)[O-] | 1060 mg/kg
CCNc1nc(Cl)nc(NC(C)(C)C)n1 | 1500 mg/kg
COCCOCCO | 5500 mg/kg
CCC(CC)Nc1c([N+](=O)[O-])cc(C)c(C)c1[N+](=O)[O-] | 1050 mg/kg

Compound | LD50
CC(C)N | 111 mg/kg
CN=C=O | 51.5 mg/kg
CC(C)(C)c1ccc(O)c(O)c1 | 815 mg/kg
Cc1ccc(C)cc1 | 3520 mg/kg
Oc1ccc(Cl)cc1 | 500 mg/kg
Cc1ccccc1NC(=N)Nc1ccccc1C | 70.7 mg/kg
COC(=O)CC(=O)CC(=O)OC | 4480 mg/kg
CC[N+](=O)[O-] | 1080 mg/kg
CCOC=O | 1850 mg/kg
CN(C)C(=O)Nc1ccccc1 | 6400 mg/kg
CCCCCCCCCCCCCCCCCCOCCO | 1900 mg/kg
CCCCC(CC)COC(=O)CC(C(=O)OCC(CC)CCCC)S(=O)(=O)O (stereo not given) | 1900 mg/kg
CCCC(C)C1(CC)C(=O)N=C(O)NC1=O (stereo not given) | 52 mg/kg and 118 mg/kg
CN(C)S(=O)(=O)Cl | 1220 mg/kg
Nc1ccncc1 | 14 mg/kg
O=C(Nc1ccccc1)Nc1ccnc(Cl)c1 | 4900 mg/kg
CC(C)Nc1nc(Cl)nc(NC2CC2)n1 | 516 mg/kg
O=c1n(Cl)c(=O)n(Cl)c(=O)n1Cl | 406 mg/kg
Clc1ccc(C2(Cn3cncn3)CC(Br)CO2)c(Cl)c1 (stereo not given) | 328 mg/kg
CCCCCCCCCCCCCCCCCCN | 1000 mg/kg
O=C=NC1CCCCC1 | 335 mg/kg
O=[N+]([O-])c1cccc(Cl)c1 | 300 mg/kg
CC(C)C#N | 50 mg/kg
COc1nn(CSP(=S)(OC)OC)c(=O)s1 | 20 mg/kg
CC1(C)C(=O)N(Br)C(=O)N1Cl | 485 mg/kg

Compound | LD50
CS(=O)(=O)O | 200 mg/kg
COP(=S)(OC)Oc1ccc(C#N)cc1 | 580 mg/kg
CCn1cc(C(=O)O)c(=O)c2ccc(C)nc21 | 1160 mg/kg
CCCC=O | 2490 mg/kg
N#CO | 567 mg/kg and 582 mg/kg
Clc1nc(Cl)nc(Cl)n1 | 315 mg/kg
CNC(=O)Oc1cc(C)cc(C)c1 | 245 mg/kg
OC(c1ccc(Cl)cc1)(c1ccc(Cl)cc1)C(Cl)(Cl)Cl | 575 mg/kg
CC(C)(C)C(O)(CCc1ccc(Cl)cc1)Cn1cncn1 (stereo not given) | 1700 mg/kg
O=Cc1ccccn1 | 566 mg/kg
O=C1OC(=O)c2ccccc21 | 1530 mg/kg
CCCS | 1730 mg/kg
CCCCCCCCCCCCCCCCCCN(C)C | 2120 mg/kg
CNC(=O)N(C)c1nnc(C(C)(C)C)s1 | 640 mg/kg
CCCCC(CC)COC(=O)c1ccccc1 (stereo not given) | 2500 mg/kg
CCN(CC)C(=O)N1CCN(C)CC1 | 1380 mg/kg
CC(C)OC(=O)Nc1cccc(Cl)c1 | 1200 mg/kg
OCCc1ccccc1 | 1600 mg/kg
O=S(=O)(C(Cl)(Cl)Cl)C(Cl)(Cl)Cl | 535 mg/kg
COc1nc(NC(C)C)nc(NC(C)C)n1 | 503 mg/kg
COc1ccc2c(c1)c(CC(=O)O)c(C)n2C(=O)c1ccc(Cl)cc1 | 2.42 mg/kg
CCOCCOC(C)=O | 2700 mg/kg
NC(=O)c1ccccc1Cl | 1250 mg/kg
NC1CCCCC1 | 11 mg/kg
CCCC(=O)OC(C(Cl)(Cl)Cl)P(=O)(OC)OC (stereo not given) | 760 mg/kg

Compound | LD50
COCC(C)OC(C)=O (stereo not given) | 5160 mg/kg
CCCC=C(C=O)CC | 3000 mg/kg
CC(C)(C#N)C(C)(C)C#N | 27 mg/kg
CC(C)(c1ccc(O)cc1)c1cccc(C(C)(C)c2ccc(O)cc2)c1 | 5460 mg/kg
C=CC(C#N)OC(C)=O (stereo not given) | 31.6 mg/kg
CCCCC(CC)COS(=O)(=O)O (stereo not given) | 2840 mg/kg
Cc1cccc([N+](=O)[O-])c1 | 1070 mg/kg
CCCCOCC(C)O (stereo not given) | 2500 mg/kg
Oc1c(Br)cc(Br)cc1Br | 1490 mg/kg
O=Cc1ccccc1 | 1300 mg/kg
Nc1ccc(Nc2ccccc2)cc1 | 464 mg/kg
COc1ccc(C(CN)C2(O)CCCCC2)cc1 (stereo not given) | 200 mg/kg
ClC1=C(Cl)C2(Cl)C3C(Cl)C(Cl)CC3C1(Cl)C2(Cl)Cl (stereo not given) | 200 mg/kg
OCCOc1ccccc1 | 1370 mg/kg
CCCCCCC=O | 3200 mg/kg
O=C1OC(=O)C2C1C1(Cl)C(Cl)=C(Cl)C2(Cl)C1(Cl)Cl (stereo not given) | 2130 mg/kg
COc1ccccc1NC(=O)CC(C)=O | 1600 mg/kg
C=CC(=O)OCC1CO1 (stereo not given) | 150 mg/kg
CCN(CC)C(=O)SCc1ccc(Cl)cc1 | 920 mg/kg
CC(C)c1cccc(C(C)C)c1N | 3200 mg/kg
COc1ccc2c3c1O[C@H]1[C@@H](O)C=C[C@H]4[C@@H](C2)N(C)CC[C@@]341 | 427 mg/kg
C[Si](C)(C)N[Si](C)(C)C | 847 mg/kg
COP(=S)(OC)SCc1nc(N)nc(N)n1 | 890 mg/kg
ClC1=C(Cl)[C@]2(Cl)[C@@H]3[C@@H]4C[C@@H]([C@H]5O[C@@H]45)[C@@H]3[C@@]1(Cl)C2(Cl)Cl (single isomer, unassigned) | 24 mg/kg
CC[Si](Cl)(Cl)CC | 600 mg/kg

Compound | LD50
CCCCOC(=O)c1ccccc1 | 735 mg/kg
O=C(C(Cl)(Cl)Cl)C(Cl)(Cl)Cl | 240 mg/kg
CC(C)(C)c1ccc(C(O)CCCN2CCC(C(O)(c3ccccc3)c3ccccc3)CC2)cc1 (stereo not given) | 438 mg/kg
Nc1ccc([N+](=O)[O-])cc1 | 750 mg/kg
O=C1C[C@@H]2OCC=C3CN4CC[C@]56c7ccccc7N1[C@H]5[C@H]2[C@H]3C[C@H]46 | 3.58 mg/kg
C=C(C)[C@@H]1CC=C(C)C(=O)C1 | 4900 mg/kg
CCOP(=S)(OCC)Oc1cc(Cl)c(SC)cc1Cl | 9.1 mg/kg
Cc1ccc(S(C)(=O)=O)cc1[N+](=O)[O-] | 933 mg/kg
CCOP(=O)(OCC)OCC | 1160 mg/kg
Cc1ccncc1 | 440 mg/kg
Cn1cnc([N+](=O)[O-])c1Sc1ncnc2nc[nH]c12 | 400 mg/kg
CC(C)O | 4710 mg/kg
CNC(=O)ON=CC(C)(C)SC | 0.5 mg/kg
CCOP(=O)(N=C1SCC(C)S1)OCC (stereo not given) | 8.9 mg/kg
CN(C)CCCN1c2ccccc2Sc2ccc(Cl)cc21 | 142 mg/kg and 143 mg/kg
CNC1=Nc2ccc(Cl)cc2C(c2ccccc2)=[N+]([O-])C1 | 392 mg/kg
O=C(O)CF | 0.1 mg/kg
CN(C)CCCCCCN(C)C | 238 mg/kg
COc1ccc(O)c(C(C)(C)C)c1 | 2910 mg/kg
O=C(O)c1ccccc1O | 930 mg/kg and 891 mg/kg
